# Data from article PMC4560900, “High-throughput screening against thioredoxin glutathione reductase identifies novel inhibitors with potential therapeutic value for schistosomiasis” (Infectious Diseases of Poverty, 2015).
# Key:
# [1] = molecular target: T1, Thioredoxin glutathione reductase from S. mansoni (SmTGR) (Schistosoma mansoni, UniProt Q962Y6); test: Endpoint SmTGR fluorescence (ThioGlo) assay; type: biochemical
# T1 construct: made in house
# T1 sequence (Q962Y6 1-598): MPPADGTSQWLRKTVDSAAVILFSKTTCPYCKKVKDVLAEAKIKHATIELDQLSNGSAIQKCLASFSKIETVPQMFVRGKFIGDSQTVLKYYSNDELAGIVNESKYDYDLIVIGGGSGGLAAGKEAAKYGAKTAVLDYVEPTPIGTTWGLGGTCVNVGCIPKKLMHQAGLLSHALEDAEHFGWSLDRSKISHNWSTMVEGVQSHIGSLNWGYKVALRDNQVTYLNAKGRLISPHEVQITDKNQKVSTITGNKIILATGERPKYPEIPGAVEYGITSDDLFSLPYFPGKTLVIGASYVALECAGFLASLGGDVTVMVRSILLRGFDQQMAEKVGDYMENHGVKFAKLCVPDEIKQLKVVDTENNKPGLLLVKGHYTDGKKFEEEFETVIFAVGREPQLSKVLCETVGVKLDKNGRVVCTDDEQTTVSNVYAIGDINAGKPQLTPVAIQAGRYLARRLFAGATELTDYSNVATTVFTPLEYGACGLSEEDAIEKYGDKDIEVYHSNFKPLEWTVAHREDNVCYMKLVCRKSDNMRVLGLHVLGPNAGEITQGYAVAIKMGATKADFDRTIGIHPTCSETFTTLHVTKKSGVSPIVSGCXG
# Procedure: SmTGR protein (1.58 μg/ml) was loaded into each well of black 384-well plates (PerkinElmer, Boston, MA, USA) containing 19 μl of assay buffer I (90 mM Tris-HCl, 10 mM EDTA, pH 7.5, 100 μM NADPH, and 0.48 mg/ml BSA), followed by an addition of 1 μl positive control or test compounds. The plates were sealed and incubated for 50 min at room temperature. […] Following a 1 h incubation, the product was reacted with 30 μl ThioGlo® 1 reagent for 20–30 min, and the fluorescence signal was monitored at an excitation wavelength of 380 nm and an emission wavelength of 515 nm on the EnVision plate reader (PerkinElmer).
# An HTS effort was carried out against the compound library described above. […]
# Data were analyzed using GraphPad Prism® software (GraphPad, San Diego, CA, USA). […]
# Recombinant SmTGR was expressed and purified as previously described. An earlier assay of the coupled activities of SmTGR and peroxiredoxin-2 [13] was adapted to study the activity of SmTGR alone, using the following principle: SmTGR converts NADPH and GSSG to NADP^+ and reduced glutathione (GSH), and GSH production can be detected with ThioGlo®, a maleimide derivative of the naphthopyranone fluorophore which fluoresces upon reacting with free thiol groups such as those present in GSH. […] After ten additional minutes, samples were excited at […] and read for fluorescence at 515 nM.
# SmTGR = test system: SmTGR; parameters: method as in PMID 17579510; settings: read-out: IC50 documented in the literature; cited from earlier work
# worms = test system: worms; parameters: method as in PMID 7016122; settings: previous studies; cited from earlier work
smiles,measurement,setting,value
"O=C1C=CC(=O)c2c(O)ccc(O)c21 [naphthazarin, Naphthazarin]",IC50,[1],1.42 ± 0.08 µM
same,inhibition at 30 µM,[1]; read-out: Inhibition of SmTGR,100%
same,IC50,SmTGR,10 µM
"O=C(C1CCCCC1)N1CC(=O)N2CCc3ccccc3C2C1 (stereo not shown) [PZQ, praziquantel]",Worm-killing activity concentration,worms,0.3 to 1 µM
